Reference: the supplement of paper PMC11061612

Key:
Test in all cases: combination Emax (second highest fraction inhibited in the dose matrix, 72 h); higher = more inhibition; extreme values may be limits of the assay
[1] = system: B-CPAP (Thyroid Gland Carcinoma)
Procedure, shortened: (§1)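 After 24 hours at 37°C and 5% CO2 in 1536-well plates, cells in DMEM/F12 or RPMI plus 10% FBS received two-drug dose matrices for 72 hours. Viability came from CellTiter-Glo 2.0 luminescence and was scaled as inhibition, anchored at 0 by vehicle wells and at 1 by blank wells. Combination Emax is taken as the second-highest inhibition in the matrix, and Bliss excess as the observed combination effect less EA + EB − EA·EB, with EA and EB the single-agent effects.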

[2] = system: CAL-148 (Breast Carcinoma)
Procedure, shortened: as §1

[3] = system: COLO-205 (Colorectal Carcinoma)
Procedure, shortened: as §1

[4] = system: CaR-1 (Colorectal Carcinoma)
Procedure, shortened: as §1

[5] = system: DEL (T-Cell Non-Hodgkin's Lymphoma)
Procedure, shortened: as §1

[6] = system: Daoy (Other Solid Carcinomas)
Procedure, shortened: as §1

ES4 (Ewing's Sarcoma) = system: ES4 (Ewing's Sarcoma)
Procedure, shortened: as §1

[7] = system: HCC1806 (Breast Carcinoma)
Procedure, shortened: as §1

[8] = system: KURAMOCHI (Ovarian Carcinoma)
Procedure, shortened: as §1

[9] = system: NCI-H82 (Small Cell Lung Carcinoma)
Procedure, shortened: as §1

NOS-1 (Osteosarcoma) = system: NOS-1 (Osteosarcoma)
Procedure, shortened: as §1

[10] = system: RC-K8 (B-Cell Non-Hodgkin's Lymphoma)
Procedure, shortened: as §1

[11] = system: RO82-W-1 (Thyroid Gland Carcinoma)
Procedure, shortened: as §1

[12] = system: Ramos-2G6-4C10 (Burkitt's Lymphoma)
Procedure, shortened: as §1

[13] = system: SK-ES-1 (Ewing's Sarcoma)
Procedure, shortened: as §1

[14] = system: SNU-5 (Gastric Carcinoma)
Procedure, shortened: as §1

T98G (Glioblastoma) = system: T98G (Glioblastoma)
Procedure, shortened: as §1

[15] = system: TCCSUP (Bladder Carcinoma)
Procedure, shortened: as §1

[16] = system: TE-9 (Esophageal Squamous Cell Carcinoma)
Procedure, shortened: as §1

[17] = system: UM-UC-3 (Bladder Carcinoma)
Procedure, shortened: as §1

Structure (SMILES)	combination Emax [1]	combination Emax [2]	combination Emax [3]	combination Emax [4]	combination Emax [5]	combination Emax [6]	combination Emax (ES4 (Ewing's Sarcoma))	combination Emax [7]	combination Emax [8]	combination Emax [9]	combination Emax (NOS-1 (Osteosarcoma))	combination Emax [10]	combination Emax [11]	combination Emax [12]	combination Emax [13]	combination Emax [14]	combination Emax (T98G (Glioblastoma))	combination Emax [15]	combination Emax [16]	combination Emax [17]
CC1(C)CCC(CN2CCN(c3ccc(C(=O)NS(=O)(=O)c4ccc(NCC5CCOCC5)c([N+](=O)[O-])c4)c(Oc4cnc5[nH]ccc5c4)c3)CC2)=C(c2ccc(Cl)cc2)C1 [Venetoclax] + COc1cc(Nc2ncc3c(n2)-c2ccc(Cl)cc2C(c2c(F)cccc2OC)=NC3)ccc1C(=O)O [Alisertib] (first compound max 1 µM, 7x7, partner max 10 µM)	0.598	0.74	0.693	0.401	1	0.932	0.233	0.278	0.474	0.73	0.575	0.585	0.422	0.474	1	0.158	0.556	0.475	0.369	0.399
Cc1c2c(nn1C)CSCc1cc(n(C)n1)CSc1cc(c3ccccc3c1)OCCCc1c(C(=O)O)n(C)c3c-2c(Cl)ccc13 [AZD5991] + CN(C)CCCOc1ccc(-c2ccc3ncc4c(c3c2)n(C2CCOCC2)c(=O)n4C)cn1 [AZD0156] (first compound max 1 µM, 7x7, partner max 1 µM)	0.237	0.417	0.725	0.186	1	0.223	0.238	0.833	0.359	0.941	0.753	0.314	0.265	0.988	0.817	0.255	0.283	0.162	0.188	0.211
CN(C)CCCOc1ccc(-c2ccc3ncc4c(c3c2)n(C2CCOCC2)c(=O)n4C)cn1 [AZD0156] + O=C(c1cc(Cc2n[nH]c(=O)c3ccccc23)ccc1F)N1CCN(C(=O)C2CC2)CC1 [Olaparib] (first compound max 3 µM, partner max 3 µM)	0.34	0.604	0.365	0.207	0.78	0.427	0.658	0.479	0.152	0.382	0.328	0.318	0.313	0.745	0.804	0.439	0.287	0.279	0.353	0.289
C=CCn1c(=O)c2cnc(Nc3ccc(N4CCN(C)CC4)cc3)nc2n1-c1cccc(C(C)(C)O)n1 [AZD1775] + C1CN(CCC1(C(=O)N[C@@H](CCO)C2=CC=C(C=C2)Cl)N)C3=NC=NC4=C3C=CN4 [Capivasertib] (first compound max 3 µM, partner max 3 µM)	0.815	0.92	0.832	0.69	1	0.999	0.521	0.933	0.625	0.884	0.606	0.652	0.471	0.99	0.883	0.7	0.785	0.787	0.816	0.464
CC(=O)c1c(C)c2cnc(Nc3ccc(N4CCNCC4)cn3)nc2n(C2CCCC2)c1=O [Palbociclib] + Cn1cnc2c(F)c(Nc3ccc(Br)cc3Cl)c(C(=O)NOCCO)cc21 [Selumetinib] (first compound max 10 µM, 7x7, partner max 10 µM)	0.356	0.303	0.788	0.307	0.92	0.18	0.224	0.414	0.227	0.627	0.826	0.459	0.178	0.336	0.622	0.649	0.374	0.187	0.201	0.246
CN(CCO)CC[C@H](CSc1ccccc1)Nc1ccc(S(=O)(=O)NC(=O)c2ccc(N3CCC([C@@H](O)c4ccccc4-c4ccc(Cl)cc4)CC3)cc2)cc1S(=O)(=O)C(F)(F)F [AZD4320] + C1CN(CCC1(C(=O)N[C@@H](CCO)C2=CC=C(C=C2)Cl)N)C3=NC=NC4=C3C=CN4 [Capivasertib] (first compound max 1 µM, 7x7, partner max 3 µM)	0.284	1	0.831	0.21	0.192	0.249	0.564	0.212	0.351	0.255	0.475	0.552	0.311	0.586	0.94	0.447	0.249	0.168	0.356	0.196
COc1nnc2ccc(N3CCC(c4ccc(OCCN5CCN(C)C(=O)[C@H]5C)cc4)CC3)nn12 [AZD5153] + CCN(CCO)CCCOc1ccc2c(Nc3cc(CC(=O)Nc4cccc(F)c4)[nH]n3)ncnc2c1 [AZD2811] (first compound max 1 µM, 7x7, partner max 1 µM)	0.645	0.927	0.869	0.367	0.905	0.606	0.685	0.676	0.738	0.481	0.765	0.728	0.402	0.666	0.941	0.506	0.491	0.366	0.218	0.459
COc1nnc2ccc(N3CCC(c4ccc(OCCN5CCN(C)C(=O)[C@H]5C)cc4)CC3)nn12 [AZD5153] + CC1(C)CCC(CN2CCN(c3ccc(C(=O)NS(=O)(=O)c4ccc(NCC5CCOCC5)c([N+](=O)[O-])c4)c(Oc4cnc5[nH]ccc5c4)c3)CC2)=C(c2ccc(Cl)cc2)C1 [Venetoclax] (first compound max 1 µM, 7x7, partner max 1 µM)	0.622	0.557	0.566	0.384	0.809	0.487	0.616	0.645	0.747	0.467	0.728	0.738	0.407	0.589	0.579	0.469	0.491	0.252	0.13	0.278
CC1(C)CCC(CN2CCN(c3ccc(C(=O)NS(=O)(=O)c4ccc(NCC5CCOCC5)c([N+](=O)[O-])c4)c(Oc4cnc5[nH]ccc5c4)c3)CC2)=C(c2ccc(Cl)cc2)C1 [Venetoclax] + C[C@@H](Nc1cc(F)cc(F)c1)c1cc(C(=O)N(C)C)cc2c(=O)cc(N3CCOCC3)oc12 [AZD8186] (first compound max 1 µM, 7x7, partner max 3 µM)	0.132	0.263	0.285	0.109	0.312	0.176	0.211	0.0952	0.306	0.141	0.462	0.281	0.217	0.221	0.64	0.406	0.411	0.131	0.129	0.164
COc1nnc2ccc(N3CCC(c4ccc(OCCN5CCN(C)C(=O)[C@H]5C)cc4)CC3)nn12 [AZD5153] + C=CCn1c(=O)c2cnc(Nc3ccc(N4CCN(C)CC4)cc3)nc2n1-c1cccc(C(C)(C)O)n1 [AZD1775] (first compound max 1 µM, partner max 1 µM)	0.734	0.907	0.79	0.451	1	0.908	0.758	0.9	0.83	0.914	0.867	0.787	0.451	1	0.941	0.522	0.717	0.578	0.275	0.393
